According to PMC9525345, “Hypoalbuminemia affects the spatio-temporal tissue distribution of ochratoxin A in liver and kidneys: consequences for organ toxicity” (Archives of Toxicology, 2022):
Where two headings read alike, the source gives them in different places.

How the values were obtained:
mice [1] = tested on: mice; design: method as in Bendele et al. [1985]; Kanisawa and Suzuki [1978]; details: mice-fed diets containing 40 ppm, equivalent to 5.6 mg/kg b.w. per day; ref Bendele et al. [1985]; Kanisawa and Suzuki [1978]; cited from earlier work
[2] = design: method as in Perry et al. [2003]; details: weak organic acid; ref Perry et al. [2003]; cited from earlier work
[3] = Intravital two-photon imaging of OTA transport in the kidneys; format: in vivo, mice; details: 5 mg/kg tail vein bolus
Description: (§1) Intravital imaging of OTA transport in the livers and the kidneys of anesthetized wild-type and albumin knockout mice was done using an inverted two-photon microscope (LSM MP7, Zeiss, Germany). Details of the surgical preparation of the mice and exposure of the liver and the kidneys for imaging were previously described (Ghallab et al. [2021a]; Reif et al. [2017]). Tissue morphology was visualized by intravenous administration of the mitochondrial membrane potential marker tetramethylrhodamine ethyl ester (TMRE) (#T669, ThermoFisher Scientific) approximately 10 min before recording (Table 2). To image its transport kinetics in the liver and kidneys, a bolus of OTA (5 mg/kg) was administered via a tail vein catheter (SAI-infusion, IL, USA) within approximately 20 s after the onset of recording; the first few frames recorded prior to the OTA administration served to detect the basal tissue auto-fluorescence (Table 2). The mice were kept under controlled ambient temperature conditions of 36 °C, with exposure to a maintenance isoflurane inhalation anesthesia during the entire recording session.
(§2) During image processing, rigid body registration was performed using StackReg (Thévenaz et al. [1998]) to compensate for tissue movement in the recorded time series. From these stabilized videos, 2D projections were generated using average and standard deviation operators. The pixel classification and autocontext workflows of the interactive image segmentation software ilastik (version 1.3.3post1) (Berg et al. [2019]) were used for compartment segmentation in the 2D projections of liver and kidney. The compartments considered are sinusoids, hepatocyte cytoplasm and bile canaliculi in the liver, as well as inter-tubular capillaries, renal tubular lumen, and the tubular epithelial cells in the kidney. Mean raw OTA intensities were measured per compartment and frame. In addition, for the kidney, mean OTA intensities per tubule were measured based on the signal in the TMRE positive cell compartment, and tubules were subsequently grouped into two sets using k-means clustering based on their maximum mean OTA intensity over time.
(§3) For the calculation of the elimination half-life, Microsoft excel was used. First, the decadic logarithm of the intensity was plotted against the time. Then, the linear declining portion of the curve was selected manually and used for construction of a trend line. Next, the slope of the trendline was multiplied by 2.303 to convert the decadic to the natural logarithm and enable usage of the following formulas: • kel = -slope (Certara knowledgebase) • T ½ = ln (2) /kel (Certara knowledgebase)

[4] = design: method as in O'Brien and Dietrich [2005]; Ringot et al. [2006]; details: mice, per os; ref O'Brien and Dietrich [2005]; Ringot et al. [2006]; cited from earlier work
[5] = tested on: wild-type and albumin knockout mice; experiment: Ochratoxin A toxicity experiment: kidney (histopathology, creatinine, BUN, CD45); format: in vivo; details: 24 h
Protocol: (§4) To study the role of albumin in OTA toxicity, 8-week-old female homozygote and heterozygote albumin-deficient mice, and corresponding C57BL/6 J wild-type controls were challenged intravenously with 10 mg/kg OTA (#10470691, Fisher Scientific) dissolved in 0.1 M NaHCO3, pH 7.4, with an application volume of 2 ml/kg. On day 1 after OTA injection, heart blood samples were collected, and plasma was separated according to a standard protocol (Gianmoena et al. [2021]). In addition, tissue specimens were collected from the left liver lobe and kidneys, fixed for 2 days in 4% paraformaldehyde (#P087-5, Roth), and finally embedded in paraffin for histopathology and immunohistochemistry analyses (Schneider et al. [2021b]).
(§5) Plasma concentration of albumin, creatinine, and blood urea nitrogen (BUN), as well as activities of alanine transaminase (ALT), and aspartate transaminase (AST) were analyzed by the Piccolo Xpress Chemistry Analyzer (Hitado, Germany) using the Piccolo general chemistry 13 panel (#AB-114-400-0029, Hitado, Germany).
(§6) Hematoxylin and eosin (H&E) staining was performed in 4 µm-thick paraffin-embedded liver and kidney tissue sections as previously described (Campos et al. [2020]).
(§7) Visualization of albumin protein expression in the liver tissue, and immune cell infiltration in the liver and kidney tissues was done by immunohistochemistry using an autostainer (Discovery Ultra Automated Slide Preparation System, Roche, Germany) (Ghallab et al. [2021b]). For this purpose, 4 µm-thick paraffin-embedded liver or kidney tissue sections were incubated with primary antibodies against albumin (# ab192603, abcam), CD45 (a pan leukocyte marker; #550,539, BD Bioscience), and FSP1 (a marker of inflammatory subpopulation of macrophages (Österreicher et al. [2011]) (#ab197896, Abcam). Dilutions of the primary antibodies as well as the used secondary antibodies are described in Table 2. Following staining, entire slides were scanned (Axio Scan.Z1, Zeiss, Germany) and representative images are shown in the results section.

mice [6] = tested on: mice; design: method as in IARC [1993]; details: ref IARC [1993], cited from earlier work
[7] = Intravital two-photon imaging of OTA transport in the liver; format: in vivo, mice
Description: as §1, §2, §3

HSA = tested on: HSA; design: method as in Poor et al. [2013]; Sueck et al. [2018]; details: ref Poor et al. [2013], Sueck et al. [2018]; cited from earlier work
[8] = design: method as in O'Brien and Dietrich [2005]; Ringot et al. [2006]; details: human; ref O'Brien and Dietrich [2005]; Ringot et al. [2006]; cited from earlier work
[9] = design: method as in Anzai et al. [2010]; Ringot et al. [2006]; details: ref Anzai et al. [2010]; Ringot et al. [2006]; cited from earlier work
[10] = design: method as in EFSA [2020]; details: ref EFSA [2020]; cited from earlier work
[11] = tested on: wild-type and albumin knockout mice; experiment: Ochratoxin A toxicity experiment: liver (histopathology, ALT, AST); format: in vivo; details: 24 h; for liver histopathology: 10 mg/kg i.v. single dose
Protocol: as §4, §5, §6, §7

[12] = heterozygous albumin knockout mice
[13] = homozygous albumin knockout mice

C[C@@H]1Cc2c(Cl)cc(C(=O)N[C@@H](Cc3ccccc3)C(=O)O)c(O)c2C(=O)O1 [OTA, Ochratoxin A]
tumor induction in chronic toxicity studies (mice [1]): induced liver and kidney tumors
pKa, carboxyl group [2]: 4.3
pKa, phenolic hydroxyl group [2]: 7.2
OTA signal in tubular lumen and tubular epithelial cells [3, 12]: a longer duration and higher intensity of the OTA signal in the tubular epithelial cells
OTA signal in tubular lumen and tubular epithelial cells [3, 13]: rapid filtration into the renal tubular lumen and enrichment into the tubular epithelial cells
half-life ([3]; mouse, renal blood capillaries (kidney), intravenous, homozygous albumin knockout mice, read-out: half-life of OTA signal in renal blood capillaries): ~0.28 min
OTA signal in tubular lumen and tubular epithelial cells ([3]; wild-type mice): only a weak, transient increase was seen in the lumen and cytoplasm of the tubular epithelial cells
Half-life in blood t1/2 [4]: 40 h
blood biomarkers of kidney damage, creatinine and urea nitrogen ([5]; between the three mouse models, 10 mg/kg i.v.): no significant differences
immune cell infiltration in kidney (CD45) ([5]; wild type and albumin knockout mice, 10 mg/kg i.v.): no obvious immune cell infiltration
macroscopical or histopathological alterations in kidney tissue ([5]; wild-type, heterozygous and homozygous knockout mice, 10 mg/kg i.v. single dose): did not cause obvious macroscopical or histopathological alterations in the kidney tissue
Acute toxicity LD50 (mice [6]; i.v.): 25.7 to 33.8 mg/kg
Acute toxicity LD50 (mice [6]; p.o.): 46 to 58.3 mg/kg
transport of OTA to hepatocytes and bile canaliculi ([7]; heterozygous albumin knockout mice, 5 mg/kg tail vein bolus): transient increases in hepatocytes and enrichment in bile canaliculi
disappearance of OTA from blood after bolus injection [7, 13]: completely disappeared from the blood of homozygous albumin knockout mice within a minute
transport of OTA to hepatocytes and bile canaliculi ([7]; homozygous albumin knockout mice, 5 mg/kg tail vein bolus): massively increased canalicular secretion with almost no increase in the hepatocytes
half-life ([7]; mouse, sinusoidal blood (liver), intravenous, homozygous albumin knockout mice, 5 mg/kg tail vein bolus, read-out: half-life of OTA signal in sinusoidal blood): ~0.22 min
transport of OTA to hepatocytes and bile canaliculi ([7]; wild-type mice, 5 mg/kg tail vein bolus): No transport of OTA to hepatocytes and bile canaliculi was detectable
Albumin binding K (HSA): ~10^7
Albumin binding log K (HSA): 7.0 – 7.6
Half-life in blood t1/2 [8]: 35.5 days
plasma protein-binding capacity [9]: > 99%
Log Pow [10]: 4.37
liver histopathology [11, 12]: massive pericentral necrosis and hemorrhage
blood biomarkers of liver injury ALT and AST ([11]; heterozygous albumin-deficient mice compared to wild-type and homozygous, 10 mg/kg i.v.): significantly increased values
liver histopathology [11, 13]: appeared smaller compared to the heterozygous animals
liver histopathology ([11]; wild-type mice): small clusters of dead cells in the pericentral compartment of the liver lobule
